In PubChem BioAssay AID256 (DTP/NCI, 2004) one finds T/C data, which are given here for 22 compounds.

Values joined by “and” are separate entries in the source; they are usually repeats but may differ in a detail not shown here. Identical values can stand only once. Inconclusive results and toxic doses are left out.

For the experiment, the system named is CD2F1 mice, L1210 leukemia ip, survival T/C. Briefly: NCI In Vivo Anticancer Drug Screen. Data for tumor model L1210 Leukemia (intraperitoneal) in CD2F1 (CDF1) mice. Particulars: higher = longer survival. The gist of the method: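 In this screen, transplantable tumors were grown in mice given either the compound or its vehicle. Results were expressed as the treated measurement relative to the control measurement.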

The mark [1] stands for this setting: endpoint: mean survival time, dose: 100.0 mg/kg/injection, schedule: Q01DX001 (ip), vehicle: saline with Tween-80.
The mark [2] stands for this setting: endpoint: mean survival time, dose: 100.0 mg/kg/injection, schedule: Q01DX009 (ip), vehicle: saline with Tween-80.
[3] abbreviates: endpoint: mean survival time, dose: 200.0 mg/kg/injection, schedule: Q01DX001 (ip), vehicle: saline with Tween-80.
Where [4] appears, read: endpoint: mean survival time, dose: 200.0 mg/kg/injection, schedule: Q01DX009 (ip), vehicle: saline with Tween-80.
[5] abbreviates: endpoint: mean survival time, dose: 400.0 mg/kg/injection, schedule: Q01DX001 (ip), vehicle: saline with Tween-80.
The mark [6] stands for this setting: endpoint: mean survival time, dose: 400.0 mg/kg/injection, schedule: Q01DX009 (ip), vehicle: saline with Tween-80.
The mark [7] stands for this setting: endpoint: mean survival time, dose: 100.0 mg/kg/injection, schedule: Q04DX003 (ip), vehicle: saline with Tween-80.
Setting [8] is: endpoint: mean survival time, dose: 200.0 mg/kg/injection, schedule: Q04DX003 (ip), vehicle: saline with Tween-80.
The mark [9] stands for this setting: endpoint: mean survival time, dose: 400.0 mg/kg/injection, schedule: Q04DX003 (ip), vehicle: saline with Tween-80.
Setting [10] is: endpoint: mean survival time, dose: 12.5 mg/kg/injection, schedule: Q01DX009 (ip), vehicle: saline with Tween-80.
The mark [11] stands for this setting: endpoint: mean survival time, dose: 25.0 mg/kg/injection, schedule: Q01DX009 (ip), vehicle: saline with Tween-80.
[12] abbreviates: endpoint: mean survival time, dose: 50.0 mg/kg/injection, schedule: Q01DX009 (ip), vehicle: saline with Tween-80.

For the compound `CCOC(=O)C(=Cc1ccc(O)c(OC)c1)C(=O)OCC`, the T/C runs as follows: under setting [1], 104 % of control; under setting [2], 93 % of control; under setting [3], 101 % of control; under setting [4], 101 % of control; under setting [5], 108 % of control; under setting [6], 101 % of control.

Consider `NS(=O)(=O)c1cccc([N+](=O)[O-])c1`, for which the T/C was 95 % of control under setting [1], 92 % of control under setting [3] and 97 % of control under setting [5].

For the compound `C=CCn1c(NCCN(CC)CC)nc2ccc(Cl)cc2c1=O`, the T/C (endpoint: mean survival time, dose: 12.5 mg/kg/injection, schedule: Q01DX009 (ip), vehicle: saline sonified) was 105 % of control; the T/C (endpoint: mean survival time, dose: 12.5 mg/kg/injection, schedule: Q04DX003 (ip), vehicle: saline) was 100 % of control; the T/C (endpoint: mean survival time, dose: 25.0 mg/kg/injection, schedule: Q01DX009 (ip), vehicle: saline sonified) is 100 % of control; the T/C (endpoint: mean survival time, dose: 25.0 mg/kg/injection, schedule: Q04DX003 (ip), vehicle: saline) was 100 % of control; the T/C (endpoint: mean survival time, dose: 50.0 mg/kg/injection, schedule: Q01DX009 (ip), vehicle: saline sonified) is 103 % of control; the T/C (endpoint: mean survival time, dose: 50.0 mg/kg/injection, schedule: Q04DX003 (ip), vehicle: saline) was 101 % of control.

As to `Cc1ccc(S(=O)(=O)Oc2cccc(C)c2)cc1`, the T/C is, setting by setting: under setting [2], 96 % of control; under setting [7], 100 % of control; under setting [4], 96 % of control; under setting [8], 99 % of control; under setting [6], 91 % of control; under setting [9], 94 % of control.

Consider `C1CCc2nnnn2CC1`, for which the T/C reads like this: (endpoint: mean survival time, dose: 12.5 mg/kg/injection, schedule: Q01DX009 (ip), vehicle: saline) 98 % of control; (endpoint: mean survival time, dose: 25.0 mg/kg/injection, schedule: Q01DX009 (ip), vehicle: saline) 103 % of control; (endpoint: mean survival time, dose: 50.0 mg/kg/injection, schedule: Q01DX009 (ip), vehicle: saline) 95 % of control.

With `Nc1nc(N)c2nc(-c3ccccc3)c(N)nc2n1`, the T/C is, setting by setting: under setting [10], 97 % of control; (endpoint: mean survival time, dose: 12.5 mg/kg/injection, schedule: Q04DX003 (ip), vehicle: saline with Tween-80) 102 % of control; under setting [11], 98 % of control; (endpoint: mean survival time, dose: 25.0 mg/kg/injection, schedule: Q04DX003 (ip), vehicle: saline with Tween-80) 95 % of control; under setting [12], 94 % of control; (endpoint: mean survival time, dose: 50.0 mg/kg/injection, schedule: Q04DX003 (ip), vehicle: saline with Tween-80) 98 % of control.

As for `CCCCCC(=O)N1CCCC1`, the T/C under setting [7] is 98 % of control and the T/C under setting [8] is 98 % of control.

Consider `COc1cc2c(cc1OC)-c1c(cnn1C1OC(COC(C)=O)C(OC(C)=O)C(OC(C)=O)C1OC(C)=O)CC2` (stereo unspecified), for which the T/C (endpoint: mean survival time, dose: 12.5 mg/kg/injection, schedule: Q01DX005 (ip), vehicle: other) was 103 % of control; the T/C (endpoint: mean survival time, dose: 25.0 mg/kg/injection, schedule: Q01DX005 (ip), vehicle: other) was 93 % of control; the T/C (endpoint: mean survival time, dose: 50.0 mg/kg/injection, schedule: Q01DX005 (ip), vehicle: other) was 90 % of control; the T/C (endpoint: mean survival time, dose: 100.0 mg/kg/injection, schedule: Q01DX005 (ip), vehicle: other) is 87 % of control.

Take `COc1cccc2c1C(=O)c1c(O)c3c(c(O)c1C2=O)CC(O)(/C(C)=N/NC(=O)CCCCC(=O)N/N=C(\C)C1(O)Cc2c(O)c4c(c(O)c2C(OC2CC(N)C(O)C(C)O2)C1)C(=O)c1c(OC)cccc1C4=O)CC3OC1CC(N)C(O)C(C)O1` (stereo unspecified): the T/C is, setting by setting: (endpoint: median survival time, dose: 1.5 mg/kg/injection, schedule: Q01DX009 (ip), vehicle: water) 116 % of control and 123 % of control; (endpoint: median survival time, dose: 3.0 mg/kg/injection, schedule: Q01DX009 (ip), vehicle: water) 121 % of control; (endpoint: median survival time, dose: 6.25 mg/kg/injection, schedule: Q01DX009 (ip), vehicle: water) 153 % of control; (endpoint: median survival time, dose: 12.5 mg/kg/injection, schedule: Q01DX009 (ip), vehicle: water) 108 % of control; (endpoint: median survival time, dose: 24.0 mg/kg/injection, schedule: Q01DX009 (ip), vehicle: water) 97 % of control; (endpoint: median survival time, dose: 25.0 mg/kg/injection, schedule: Q01DX009 (ip), vehicle: water) 87 % of control.

Turning to `CC(=O)Nc1ccc(/C=N/NC(=O)CNC(=O)Nc2cccc(C(F)(F)F)c2)cc1`, the T/C by setting is: under setting [12], 88 % of control; under setting [2], 88 % of control; under setting [4], 92 % of control.

On to `Nc1ccc(CSc2ccc(Cl)cc2)cc1`, for which the T/C (endpoint: mean survival time, dose: 400.0 mg/kg/injection, schedule: Q04DX002 (ip), vehicle: Klucel (hydroxypropylcellulose) (HPC)) was 89 % of control.

As to `O=c1[nH]cc(F)c(=O)[nH]1.[Tl]`, the T/C was 106 % of control (endpoint: mean survival time, dose: 1.5 mg/kg/injection, schedule: Q01DX009 (ip), vehicle: water); 112 % of control (endpoint: mean survival time, dose: 3.1 mg/kg/injection, schedule: Q01DX009 (ip), vehicle: water); 124 % of control (endpoint: mean survival time, dose: 6.25 mg/kg/injection, schedule: Q01DX009 (ip), vehicle: water); 91 % of control (endpoint: mean survival time, dose: 12.5 mg/kg/injection, schedule: Q01DX009 (ip), vehicle: water).

Consider `C[NH-].C[NH-].C[NH-].C[NH-].O=C(O)c1cc(C(=O)O)c(C(=O)O)cc1C(=O)O.[Pt+2].[Pt+2]`, for which the T/C by setting is: (endpoint: mean survival time, dose: 3.12 mg/kg/injection, schedule: Q04DX003 (ip), vehicle: distilled water + Tween-80) 100 % of control; (endpoint: mean survival time, dose: 6.25 mg/kg/injection, schedule: Q04DX003 (ip), vehicle: distilled water + Tween-80) 102 % of control; (endpoint: mean survival time, dose: 12.5 mg/kg/injection, schedule: Q04DX003 (ip), vehicle: distilled water + Tween-80) 103 % of control; (endpoint: mean survival time, dose: 25.0 mg/kg/injection, schedule: Q04DX003 (ip), vehicle: distilled water + Tween-80) 105 % of control; (endpoint: mean survival time, dose: 50.0 mg/kg/injection, schedule: Q04DX003 (ip), vehicle: distilled water + Tween-80) 102 % of control; (endpoint: mean survival time, dose: 100.0 mg/kg/injection, schedule: Q04DX003 (ip), vehicle: distilled water + Tween-80) 103 % of control. Also, the T/C (endpoint: mean survival time, dose: 200.0 mg/kg/injection, schedule: Q04DX003 (ip), vehicle: distilled water + Tween-80) is 107 % of control.

Turning to `CCCCCCCCS`, the T/C under setting [2] is 100 % of control, the T/C under setting [4] was 91 % of control and the T/C under setting [6] is 92 % of control.

Turning to `OC1(O)CCN(Cc2ccccc2)CC1`, the T/C reads like this: (endpoint: mean survival time, dose: 100.0 mg/kg/injection, schedule: Q04DX003 (ip), vehicle: acetone) 94 % of control; (endpoint: mean survival time, dose: 200.0 mg/kg/injection, schedule: Q04DX003 (ip), vehicle: acetone) 96 % of control; (endpoint: mean survival time, dose: 400.0 mg/kg/injection, schedule: Q04DX003 (ip), vehicle: acetone) 94 % of control.

Take `O=c1[nH]nc(-c2cccc3ccccc23)o1`: the T/C under setting [1] was 96 % of control, the T/C under setting [3] is 99 % of control and the T/C under setting [5] was 108 % of control.

With `c1ccc(P(c2ccccc2)c2ccccc2)cc1`, the T/C runs as follows: under setting [12], 96 % of control; under setting [2], 100 % of control; under setting [7], 100 % of control; under setting [4], 98 % of control; under setting [8], 100 % of control; under setting [9], 93 % of control.

For `CCOC(=O)N1CCN(c2ccc(Cl)cc2)CC1`, the T/C was 93 % of control (endpoint: mean survival time, dose: 100.0 mg/kg/injection, schedule: Q04DX003 (ip), vehicle: Klucel (hydroxypropylcellulose) (HPC)) and 91 % of control (endpoint: mean survival time, dose: 200.0 mg/kg/injection, schedule: Q04DX003 (ip), vehicle: Klucel (hydroxypropylcellulose) (HPC)).

On to `[Cl][Mn][Cl]`, for which the T/C (endpoint: median survival time, dose: 8.0 mg/kg/injection, schedule: Q01DX009 (ip), vehicle: saline) is 92 % of control; the T/C (endpoint: median survival time, dose: 16.0 mg/kg/injection, schedule: Q01DX009 (ip), vehicle: saline) is 97 % of control; the T/C (endpoint: median survival time, dose: 32.0 mg/kg/injection, schedule: Q01DX009 (ip), vehicle: saline) is 103 % of control; the T/C (endpoint: median survival time, dose: 64.0 mg/kg/injection, schedule: Q01DX009 (ip), vehicle: saline) is 110 % of control.

In the case of `CN1CCN(Cc2nc3cccc4c3c([n+]2[O-])-c2ccccc2-4)CC1`, the T/C is 91 % of control and 97 % of control and 102 % of control under setting [10]; 96 % of control and 101 % of control and 102 % of control under setting [11]; 94 % of control and 102 % of control and 103 % of control under setting [12]; 117 % of control and 105 % of control and 108 % of control under setting [2].

In the case of `CC(=O)C1C(=O)CC(C)(O)C(C(C)=O)C1c1ccccc1` (stereo unspecified), the T/C runs as follows: under setting [2], 93 % of control; under setting [7], 101 % of control; under setting [4], 96 % of control; under setting [8], 101 % of control; under setting [6], 94 % of control; under setting [9], 103 % of control.

Take `COc1ccc(OC)c(NC(=O)C2CC2)c1`: the T/C runs as follows: under setting [2], 97 % of control; under setting [4], 102 % of control; under setting [6], 98 % of control.
